Patent US11708351B2 (Achillion Pharmaceuticals, Inc., priority 2017, dated 2023)
Like-named read-outs stand apart in the source and are kept apart here.

Biological target: Human Factor D (Homo sapiens (Human), UniProt P00746)
Assay: Human Factor D Assay
Assay type: biochemical
Experimental: Human Factor D (purified from human serum, Complement Technology, Inc.) at 80 nM final concentration is incubated with test compound at various concentrations for 5 min at room temperature in 50 mM Tris, 1M NaCl, pH 7.5. A synthetic substrate Z-L-Lys-SBzl and DTNB (Ellman's reagent) are added to final concentrations of 100 μM each. Absorbance at 405 nm (A405) is recorded at 30 second intervals for 30 min using a microplate spectrophotometer. IC50 values are calculated by nonlinear regression of complement Factor D reaction rates as a function of test compound concentration.

[1] = Table 6, Factor D 80 nM, substrate Z-L-Lys-SBzl, read-out: IC50
[2] = Factor D inhibition, assay of Example 10, read-out: IC50 (Stars)
[3] = Table 8, Factor D 80 nM, substrate Z-L-Lys-SBzl, read-out: IC50

Sequence of Human Factor D (P00746 26-253): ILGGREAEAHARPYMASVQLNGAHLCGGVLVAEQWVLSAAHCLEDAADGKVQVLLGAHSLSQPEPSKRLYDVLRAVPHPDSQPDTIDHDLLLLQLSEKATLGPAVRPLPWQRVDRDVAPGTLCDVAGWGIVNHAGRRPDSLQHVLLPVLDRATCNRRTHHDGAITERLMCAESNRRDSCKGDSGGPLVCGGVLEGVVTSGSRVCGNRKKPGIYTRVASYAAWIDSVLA

Compound | IC50 [1] [nM] | IC50 [2] [nM] | also measured
CC(=O)c1nn(CC(=O)N2C[C@H]3C[C@H]3[C@H]2C(=O)N2C[C@H]3C[C@H]3[C@H]2C(=O)Nc2nc(Br)ccc2C)c2c(C)cc(-c3cnc(C)nc3)cc12 [Compound 92, (1R,2S,5S)-3-((1R,2S,5S)-3-(2-(3-acetyl-7-methyl-5-(2-methylpyrimidin-5-yl)-1H-indazol-1-yl)acetyl)-3-azabicyclo[3.1.0]hexane-2-carbonyl)-N-(6-bromo-3-methylpyridin-2-yl)-3-azabicyclo[3.1.0] hexane-2-carboxamide] | 1000 to 10000 |  | 
CC(=O)c1nn(CC(=O)N2[C@H](C(=O)Nc3nc(Br)ccc3COCCF)C[C@@]3(C)C[C@@H]23)c2ccc(-c3cnc(C)nc3)cc12 [Compound 301, (1R,3S,5R)-2-(2-(3-acetyl-5-(2-methylpyrimidin-5-yl)-1H-indazol-1-yl)acetyl)-N-(6-bromo-3-((2-fluoro-ethoxy)methyl)pyridin-2-yl)-5-methyl-2-azabicyclo[3.1.0]hexane-3-carboxamide] |  | < 1000 | 
COC(=O)CCCCCCCCCCCCCCCCC(=O)N[C@@H](CCC(=O)NCCOCCOCC(=O)NCCOCCOCC(=O)NCc1ncc(-c2cc(C)c3c(c2)c(C(C)=O)nn3CC(=O)N2[C@H](C(=O)Nc3nc(Br)ccc3C)C[C@@]3(C)C[C@@H]23)cn1)C(=O)OC [Compound 403, (S)-methyl 1-(5-(3-acetyl-1-(2-((1R,3S,5R)-3-((6-bromo-3-methylpyridin-2-yl)carbamoyl)-5-methyl-2-azabicyclo[3.1.0]hexan-2-yl)-2-oxoethyl)-7-methyl-1H-indazol-5-yl)pyrimidin-2-yl)-24-(methoxycarbonyl)-3,12,21,26-tetraoxo-5,8,14,17-tetraoxa-2,11,20,25-tetraazatritetracontan-43-oate] |  |  | IC50 [3]: < 1000 nM
CC(=O)c1nn(CC(=O)N2[C@H](C(=O)Nc3nc(Br)c(F)cc3C)C[C@@]3(CC#N)C[C@@H]23)c2cnc(-c3cnc(C)nc3)cc12 [Compound 249, (1R,3S,5R)-2-(2-(3-acetyl-5-(2-methylpyrimidin-5-yl)-1H-pyrazolo[3,4-c]pyridin-1-yl)acetyl)-N-(6-bromo-5-fluoro-3-methylpyridin-2-yl)-5-(cyanomethyl)-2-azabicyclo[3.1.0]hexane-3-carboxamide] |  | < 1000 | 
CC(=O)c1nn(CC(=O)N2[C@H](C(=O)Nc3nc(Br)c(F)cc3C)C[C@@]3(CN(CCO)CCO)C[C@@H]23)c2cnc(-c3cnc(C)nc3)cc12 [Compound 248, (1R,3S,5R)-2-(2-(3-acetyl-5-(2-methylpyrimidin-5-yl)-1H-pyrazolo[3,4-c]pyridin-1-yl)acetyl)-5-((bis(2-hydroxy-ethyl)amino)methyl)-N-(6-bromo-5-fluoro-3-methylpyridin-2-yl)-2-azabicyclo[3.1.0]hexane-3-carboxamide] |  | < 1000 | 
CC(=O)c1nn(CC(=O)N2[C@H](C(=O)Nc3cc(-c4ccccc4O)cc(Br)n3)C[C@@]3(C)C[C@@H]23)c2ccc(-c3cnc(C)nc3)cc12 [Compound 556, (1R,3S,5R)-2-(2-(3-acetyl-5-(2-methylpyrimidin-5-yl)-1H-indazol-1-yl)acetyl)-N-(6-bromo-4-(2-hydroxyphenyl)pyridin-2-yl)-5-methyl-2-azabicyclo[3.1.0]hexane-3-carboxamide] |  |  | IC50 (Table 7, Factor D inhibition, assay of Example 10, read-out: IC50 (Stars)): < 1000 nM
COCc1ncc(-c2ccc3c(c2)c(C(C)=O)nn3CC(=O)N2[C@H](C(=O)Nc3nc(Br)ccc3C)C[C@@]3(C)C[C@@H]23)cn1 [Compound 278, (1R,3S,5R)-2-(2-(3-acetyl-5-(2-(methoxymethyl)py-rimidin-5-yl)-1H-indazol-1-yl)acetyl)-N-(6-bromo-3-methylpyridin-2-yl)-5-methyl-2-azabicyclo[3.1.0]hexane-3-carboxamide] |  | < 1000 | 
CC(=O)c1nn(CC(=O)N2[C@H](C(=O)O)C[C@@]3(C)C[C@@H]23)c2c(C)cc(-c3cnc(C)nc3)cc12 [Compound 126, (1R,3S,5R)-2-(2-(3-acetyl-7-methyl-5-(2-methylpyrimidin-5-yl)-1H-indazol-1-yl)acetyl)-5-methyl-2-azabicyclo[3.1.0] hexane-3-carboxylic acid] | > 10000 |  | 
CC(=O)c1nn(CC(=O)N2[C@H](C(=O)Nc3nc(Br)ccc3C)C[C@@]3(C)C[C@@H]23)c2c(CN(C)C)cc(-c3cnc(C)nc3)cc12 [Compound 167, (1R,3S,5R)-2-(2-(3-Acetyl-7-((dimethylamino)methyl)-5-(2-methylpyrimidin-5-yl)-1H-indazol-1-yl)acetyl)-N-(6-bromo-3-methylpyridin-2-yl)-5-methyl-2-azabicyclo[3.1.0]hexane-3-carboxamide] | < 1000 |  | 
CC(=O)c1c2cc(-c3cnc(C)nc3)cc(C(F)(F)F)c2nn1CC(=O)N1[C@H](C(=O)Nc2nc(Br)ccc2C)C[C@@]2(C)C[C@@H]12 [Compound 217, (1R,3S,5R)-2-(2-(3-acetyl-5-(2-methylpyrimidin-5-yl)-7-(trifluoromethyl)-2H-indazol-2-yl)acetyl)-N-(6-bromo-3-methylpyridin-2-yl)-5-methyl-2-azabicyclo[3.1.0] hexane-3-carboxamide] | > 10000 |  | 
CC(=O)c1nn(CC(=O)N2[C@H](C(=O)Nc3nc(Br)ccc3C)C[C@@]3(C)C[C@@H]23)c2cnc(-c3cnc(C)cn3)cc12 [Compound 303] |  | < 1000 | 
CC(=O)c1nn(CC(=O)N2[C@H](C(=O)Nc3nc(Br)ccc3C)C[C@@]3(CNC(=O)COCCOCCNC(=O)COCCOCCNC(=O)CC[C@H](NC(=O)CCCCCCCCCCCCCCCCC(=O)O)C(=O)O)C[C@@H]23)c2ccc(-c3cnc(C)nc3)cc12 [Compound 379, (S)-1-((1R,3S,5R)-2-(2-(3-acetyl-5-(2-methylpyrimidin-5-yl)-1H-indazol-1-yl)acetyl)-3-((6-bromo-3-methylpyridin-2-yl)carbamoyl)-2-azabicyclo[3.1.0]hexan-5-yl)-24-carboxy-3,12,21,26-tetraoxo-5,8,14,17-tetraoxa-2,11,20,25-tetraazatritetracontan-43-oic acid] |  |  | IC50 [3]: < 1000 nM
(3S)-5-(3-Azabicyclo[3.1.1]heptan-3-ylmethyl)-2-(2-(3-acetyl-5-(2-methylpyrimidin-5-yl)-1H-indazol-1-yl)acetyl)-N-(6-bromo-3-methylpyridin-2-yl)-2-azabicyclo[3.1.0]hexane-3-carboxamide [Compound 13] | < 1000 |  | 
CC(=O)c1nn(CC(=O)N(C(=O)[C@@H]2C[C@@]3(C)C[C@H]3N2)c2cccc(Br)n2)c2cnc(-c3cnc(C)nc3)cc12 [Compound 334, (1R,3S,5R)-2-(2-(3-acetyl-5-(2-methylpyrimidin-5-yl)-1H-pyrazolo[3,4-c]pyridin-1-yl)acetyl)-N-(6-bromopyridin-2-yl)-5-methyl-2-azabicyclo[3.1.0]hexane-3-carboxamide] |  | < 1000 | 
